Laboratory results published in ChEMBL document CHEMBL1124020, “Synthesis and antiherpetic activity of (+/-)-9-[[(Z)-2-(hydroxymethyl)cyclopropyl]methyl]guanine and related compounds” (1988).
≈ marks a conversion by molar mass, not a printed value. Calls of active or inactive are those of the source. No cut-off for these calls is given here.

Columns and labels:
[1] = (§1) Inhibition of DNA polymerase; parameters: concentration or dose not given beside the values; settings: concentration not given here
[2] = target: T1, DNA polymerase catalytic subunit (Herpes simplex virus (type 1 / strain 17)) (UniProt P04293); test: as §1; parameters: concentration or dose not given beside the values; settings: concentration not given here
T1 sequence (whole entry): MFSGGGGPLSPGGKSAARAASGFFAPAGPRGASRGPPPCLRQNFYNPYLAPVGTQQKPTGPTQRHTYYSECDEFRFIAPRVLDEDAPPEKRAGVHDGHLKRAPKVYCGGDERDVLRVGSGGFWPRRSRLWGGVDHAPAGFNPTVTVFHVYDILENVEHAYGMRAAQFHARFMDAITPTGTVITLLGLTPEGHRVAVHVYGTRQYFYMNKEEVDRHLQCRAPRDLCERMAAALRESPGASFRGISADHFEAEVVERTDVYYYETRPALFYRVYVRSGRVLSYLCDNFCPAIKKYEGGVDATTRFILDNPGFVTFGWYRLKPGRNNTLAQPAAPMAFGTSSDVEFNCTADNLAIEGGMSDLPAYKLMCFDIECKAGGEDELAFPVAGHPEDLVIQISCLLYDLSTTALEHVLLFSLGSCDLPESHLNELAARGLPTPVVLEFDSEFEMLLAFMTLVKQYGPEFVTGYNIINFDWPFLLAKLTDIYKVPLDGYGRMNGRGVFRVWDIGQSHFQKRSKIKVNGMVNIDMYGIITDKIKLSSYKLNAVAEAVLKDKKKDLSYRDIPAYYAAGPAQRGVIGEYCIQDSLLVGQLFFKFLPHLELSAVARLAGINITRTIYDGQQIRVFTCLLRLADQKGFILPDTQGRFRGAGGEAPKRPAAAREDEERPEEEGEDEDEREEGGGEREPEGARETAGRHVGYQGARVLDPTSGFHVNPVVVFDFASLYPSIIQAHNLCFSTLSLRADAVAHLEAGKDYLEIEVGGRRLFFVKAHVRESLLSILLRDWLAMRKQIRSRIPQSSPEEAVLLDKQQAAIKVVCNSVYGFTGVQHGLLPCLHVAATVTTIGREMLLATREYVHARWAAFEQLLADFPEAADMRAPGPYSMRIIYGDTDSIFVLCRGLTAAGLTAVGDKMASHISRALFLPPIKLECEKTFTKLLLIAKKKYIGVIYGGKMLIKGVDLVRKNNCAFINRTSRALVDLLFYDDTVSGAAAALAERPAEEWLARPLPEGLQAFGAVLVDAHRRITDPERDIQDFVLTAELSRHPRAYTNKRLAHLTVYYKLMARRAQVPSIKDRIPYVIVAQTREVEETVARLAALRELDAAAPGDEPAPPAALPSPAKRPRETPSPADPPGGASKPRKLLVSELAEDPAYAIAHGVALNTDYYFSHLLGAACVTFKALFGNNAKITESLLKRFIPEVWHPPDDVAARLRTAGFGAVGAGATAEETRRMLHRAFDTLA

[3] = species on record: Oryctolagus cuniculus; test: (§2) Antiviral activity against HSV-1 cell line (concentration required to prevent viral cytopathic effect in half of primary rabbit kidney cell cultures); type: functional; settings: read-out: ED50 (the source's name)
[4] = target: T1, DNA polymerase catalytic subunit (Herpes simplex virus (type 1 / strain 17)); test: Percentage of diphosphates (DP) in the second step of staggered assay mixture from step 1 was incubated with GMP kinase and crude extract of HSV-1 infected HeLa cells over night; type: functional, cell-based
[5] = species on record: Oryctolagus cuniculus; test: (§3) Antiviral activity against HSV-2 cell line (concentration required to prevent viral cytopathic effect in half of primary rabbit kidney cell cultures); type: functional; settings: read-out: ED50 (the source's name)
[6] = target: T1, DNA polymerase catalytic subunit (Herpes simplex virus (type 1 / strain 17)); test: (§4) Percentage of triphosphates (TP) in the second step of staggered assay mixture from step 1 was incubated with GMP kinase and crude extract of HSV-1 infected HeLa cells over night; type: functional, cell-based; settings: Homo sapiens
[7] = target: T1, DNA polymerase catalytic subunit (Herpes simplex virus (type 1 / strain 17)); test: Percentage of monophosphates (MP) in the second step of staggered assay mixture from step 1 was incubated with GMP kinase and crude extract of HSV-1 infected HeLa cells over night; type: functional, cell-based
[8] = as §1; type: functional; settings: concentration not given here
[9] = species on record: Oryctolagus cuniculus; test: Antiviral activity against HSV-2 cell line (concentration required to prevent viral cytopathic effect in half of primary rabbit kidney cell cultures); Not Active at 100 ug/mL; type: functional, organism-based
[10] = test system: HeLa; test: as §4; type: functional, Homo sapiens
[11] = species on record: Oryctolagus cuniculus; test: Antiviral activity against HSV-1 cell line (concentration required to prevent viral cytopathic effect in half of primary rabbit kidney cell cultures); Not Active at 100 ug/mL; type: functional, organism-based
[12] = as §3; settings: Oryctolagus cuniculus, HSV-2, read-out: ED50
[13] = as §2; settings: Oryctolagus cuniculus, read-out: ED50
[14] = test system: Thymidine kinase (Human herpesvirus 1); test: Percentage of monophosphates (MP) formed in the first step of staggered assay compound was incubated with HSV-1 thymidine kinase for 4 hr

Structure (SMILES) | inhibition [1] | inhibition [2] | EC50 [3] | DP [4] | EC50 [5] | TP [6] | MP [7] | inhibition [8] | ED50 [9] | TP [10] | ED50 [11] | EC50 [12] | EC50 [13] | MP [14] | NA [9] | NA [11]
Nc1ncnc2c1ncn2C[C@H]1C[C@@H]1CO | 0% | 0% | 50 µg/mL (≈ 228 µM) | 0% | 50 µg/mL (≈ 228 µM) | 0% | 0% |  |  |  |  |  |  |  |  | 
Nc1ncnc2c1ncn2CC1CC1(CO)CO (stereo unspecified) |  | 0% | 50 µg/mL (≈ 201 µM) | 0% | 50 µg/mL (≈ 201 µM) | 0% | 0% | 12% |  |  |  |  |  |  |  | 
Nc1nc(O)c2ncn(CC=C(CO)CO)c2n1 | 0% | 0% |  | 9% |  |  | 0% |  | inactive | 25% | inactive |  |  |  |  | 
Nc1nc(O)c2ccn(C[C@H]3C[C@H]3CO)c2n1 | 0% | 14% |  | 0% |  | 0% | 9% |  | inactive |  | inactive |  |  |  |  | 
Nc1nc(O)c2ncn(CC#CCO)c2n1 | 5% | 0% |  | 0% |  | 0% | 0% |  | inactive |  | inactive |  |  |  |  | 
Nc1nc2c(ncn2COCCO)c(=O)[nH]1 [ACYCLOVIR] | 40% | 79% |  | 9% |  | 60% | 3% |  |  |  |  | 3 µg/mL (≈ 13.3 µM) | 3 µg/mL (≈ 13.3 µM) |  |  | 
Nc1nc(O)c2ncn(C[C@H]3C[C@H]3CO)c2n1 | 14% | 3% | 6 µg/mL (≈ 25.5 µM) | 0% | 12 µg/mL (≈ 51 µM) | 76% | 0% |  |  |  |  |  |  |  |  | 
Nc1nc(O)c(N=O)c(NC[C@H]2C[C@H]2CO)n1 | 0% | 8% |  | 0% |  | 21% | 0% |  | inactive |  | inactive |  |  |  |  | 
Nc1ncnc2c1ncn2C/C=C\CO | 3% | 0% |  | 0% |  | 0% | 0% |  |  |  |  |  |  | 0% | inactive | inactive
Nc1nc2c(ncn2COC(CO)CO)c(=O)[nH]1 [GANCICLOVIR] | 22% | 60% | 3 µg/mL (≈ 11.8 µM) | 10% | 3 µg/mL (≈ 11.8 µM) | 84% | 3% |  |  |  |  |  |  |  |  | 
Nc1nc(O)c2ncn(C[C@H]3C[C@@H]3CO)c2n1 | 30% | 26% |  | 48% |  | 2% | 9% |  | inactive |  | inactive |  |  |  |  | 
Nc1nc(O)c2ncn(CCC(CO)CO)c2n1 [PENCICLOVIR] | 8% | 0% | 6 µg/mL (≈ 23.7 µM) | 13% | 12 µg/mL (≈ 47.4 µM) | 75% | 3% |  |  |  |  |  |  |  |  | 
Nc1nc(O)c(N=O)c(NC[C@H]2C[C@@H]2CO)n1 | 5% | 9% |  | 0% |  | 0% | 9% |  | inactive |  | inactive |  |  |  |  | 
Nc1ncnc2c1ncn2C[C@H]1C[C@H]1CO | 0% | 5% |  | 0% |  | 0% | 0% |  | inactive |  | inactive |  |  |  |  | 
Nc1nc2c(ncn2CCCCO)c(=O)[nH]1 | 20% | 20% | 3 µg/mL (≈ 13.4 µM) | 10% | 12 µg/mL (≈ 53.8 µM) | 17% | 0% |  |  |  |  |  |  |  |  | 
Nc1nc(O)c2ncn(C/C=C/CO)c2n1 | 0% | 0% |  | 0% |  | 0% | 9% |  | inactive |  | inactive |  |  |  |  | 
Nc1nc(O)c2ncn(C/C=C\CO)c2n1 | 8% | 12% | 12 µg/mL (≈ 54.2 µM) | 16% | 50 µg/mL (≈ 226 µM) | 64% | 12% |  |  |  |  |  |  |  |  | 
Nc1nc(O)c2nnn(C[C@H]3C[C@H]3CO)c2n1 | 1% | 0% |  | 41% |  | 55% | 2% |  | inactive |  | inactive |  |  |  |  | 
Cc1cn(C[C@H]2C[C@H]2CO)c(=O)[nH]c1=O | 0% | 22% |  | 0% |  | 0% | 23% |  | inactive |  | inactive |  |  |  |  | 
Nc1nc(O)c2ncn(C[C@H]3CC3(CO)CO)c2n1 | 0% | 0% | 50 µg/mL (≈ 188 µM) | 0% |  | 0% | 0% |  | inactive |  |  |  |  |  |  | 
